Tests used:
human CD3+ T cells [1] = settings: CI of 1.0 is the control, triplicate wells
Method: Freshly prepared and purified human CD3^+ T cells were prepared from healthy donor peripheral blood. 20,000 T cells were loaded into the upper chamber of the Transwell in control, chemotactic or fugetactic settings with AMD3100 at concentrations between 0.1 μM and 10 μM. Migrated cells were counted in the lower chamber and migration quantitated as previously described. Vianello et al. The Journal of Immunology, 2006, 176: 2902-2914; Righi et al., Cancer Res.; 71(16); 5522-34, each of which is incorporated herein in its entirety.
All wells were run in triplicate.

human CD3+ T cells [2] = settings: T cells incubated with 0.01 μM to 10 mM AMD3100; anti-fugetactic at lower, fugetactic at higher concentrations; cells harvested after 3 h
Method: For quantitative transmigration assays, purified human CD3^+ T cells (approximately 2×10^4 cells) are added to the upper chamber of a Transwell® insert in each well, to a total volume of 150 μl of Iscove's modified medium. […] To determine the anti-fugetactic concentration of AMD3100, the T cells are incubated with 0.01 μM to 10 mM AMD3100 prior to addition to the chamber. Cells are harvested from the lower chamber after 3 h, and cell counts are performed using a hemocytometer.

With `c1cc(CN2CCCNCCNCCCNCC2)ccc1CN1CCCNCCNCCCNCC1` [AMD3100, 1,1′-[1,4-phenylenebis(methylene)]bis [1,4,8,11-tetraazacyclotetradecane]] the “CI (chemotactic index), chemotactic response” value (human CD3+ T cells [1]; chemotactic setting, AMD3100 at 1 μM, FIG. 1) was 2.3, the “CI (chemotactic index), fugetactic response” value (human CD3+ T cells [1]; fugetactic setting, AMD3100 at 0.1 μM, FIG. 2) was 1.6 and the “Effect of AMD3100 pre-incubation on T cell migration” value (human CD3+ T cells [2]) was “bimodal effect”.

From patent publication US20170100433A1, “MODIFIED NATURAL KILLER CELLS HAVING ANTI-FUGETACTIC PROPERTIES AND USES THEREOF” (THE GENERAL HOSPITAL CORPORATION DBA MASSACHUSETTS GENERAL …, priority 2015, published 2017)
